The test system of assay [1] is aggressivity of isolated mice. The experiment in a line: Effects on the aggressivity of isolated mice. It counts as in vivo, mouse (male CD). As to conditions: for % OF PROTECTED COUPLES (no attack) / MEAN NUMBER OF ATTACKS ± SD: 30 minutes before test; for % OF PROTECTED COUPLES (no attack): 10 couples; for MEAN NUMBER OF ATTACKS ± SD: 3 minute test. The procedure:
The male CD mice (Charles RIVER) used in this study were housed in small (18×10×10 cm) individual cages with the walls painted black, with one mouse per cage, for several months, at a constant temperature of 21° C. and in a light-darkness cycle of 12 hours. The average weight of the mice at the time of the study was 45 g.
Each experimental group comprised 10 couples of mice previously selected for their aggressivity. The aggressivity test was carried out on non-fasting animals. The "intruding" mouse of each couple was placed in the cage containing the other mouse for a 3 minute period.
The product was administered by the intraperitoneal route, 30 minutes before the test.

In assay [2] the test system is antidepressant activity. The settings on record: French Pat. No. 71.32197; cited from earlier work.
In assay [3] the test system is reserpine-induced ptosis in the mouse. In words: Effects on reserpine-induced ptosis in the mouse. It is filed as in vivo, mouse (male NMRI). The settings on record: 25 mg.kg^-1 IP, reserpine 2 mg.kg^-1 IV. As for the experimental part: This experiment was carried out on groups of 20 male NMRI mice (IFFA-CREDO), with an average weight of 20±2 g. […] GOURET et al., in J. Pharmacol., 1977, 8, (3) p. 333-350.
One hour after the injection of the reserpine, the animals were placed on a 5 cm×5 cm square, wood platform for 20 seconds. Ptosis was considered to be positive if the animal's eyes remained shut during the 20 seconds after it was placed on the platform. On the other hand, the animal was considered to be protected if the eyes were not completely closed during the 20 seconds following the moment when it was placed on the platform.

Assay [4] relates to reserpine-induced hypothermia in the mouse. The experiment in a line: Effects on reserpine-induced hypothermia in the mouse. As to conditions: 50 mg.kg^-1 IP. It is filed as in vivo, mouse (NMRI). As for the experimental part: This study was carried out on experimental groups of 10 NMRI mice (IFFA-CREDO) fasted for 18 hours. […] One hour later, all the animals were given an intraperitoneal injection of 2 mg.kg^-1 of reserpine. Hypothermia was evaluated 4 hours after the injection of reserpine by measuring the rectal temperature using an electric thermometer.

The subject of assay [5] is tetrabenazine-induced ptosis in the mouse. The experiment in a line: Effects on tetrabenazine-induced ptosis in the mouse. It counts as in vivo, mouse (male CD). As for the experimental part: Male CD mice (Charles River), of average weight 23 g, were distributed in groups of 12 animals. […] The dose of products tested was 25 mg.kg^-1. The animals were observed individually 5, 25, 35 and 55 minutes after the injection of the tetrabenazine and the intensity of the ptosis was evaluated using a 0 to 4 rating scale.

Assay [6] has as its system antidepressant activity. In words: Antidepressant activity (standard pharmacological tests). It is filed as in vivo. The text has this: The standard pharmacological tests used to evaluate the antidepressant activity of new chemical compounds, described, in particular, in Enna S. J. et al. "Antidepressants: Neurochemical Behavioral, and Clinical Perspectives" Raven Press N.Y. 1981, p.

Setting [7] is: 20 mg.kg^-1 IP, controls 0%, S = statistically significant change.

Where two headings read alike, the source gives them in different places.

Consider `CN1c2ccccc2C(NCCCCCCC(=O)O)c2ccc(Cl)cc2S1(=O)=O` (stereo not shown) [TAHA, 7-[(3-chloro-6-methyl-5,5-dioxo-6,11-dihydro-dibenzo(c,f)(1,2)thiazepin-11-yl)-amino]heptanoic acid, reference compound], for which the “% OF PROTECTED COUPLES (no attack)” value in assay [1] (10 mg.kg^-1 IP, controls 10%) is 10%; in assay [1] (setting [7]) it was 40%. Moreover, the “anti-aggressive effect (in words)” value in assay [1] (20 mg.kg^-1 IP) is given as “clear anti-aggressive effect”. In assay [1] (20 mg.kg^-1 IP, water controls 8.3 ± 6.0), the “MEAN NUMBER OF ATTACKS ± SD” value was 3.7 ± 4.9. Also, the “antidepressant properties (in words)” value in assay [2] is recorded as “antidepressant properties”.
For the compound `CN1c2ccccc2C(NCCCCC(=O)O)c2ccc(Cl)cc2S1(=O)=O` (stereo not shown) [compound of the formula I, 5-[(3-chloro-6-methyl-5,5-dioxo-6,11-dihydro-dibenzo(c,f)(1,2)thiazepin-11-yl)-amino]pentanoic acid], in assay [3], the “antagonism of reserpine-induced ptosis (in words)” value is recorded as “much more active”. In assay [3] (20 male NMRI mice per group), the “animals protected from ptosis” value is listed as 53%. For the same compound, the “antagonism of reserpine-induced hypothermia (in words)” value in assay [4] was “much higher”. Besides, the “FINAL TEMPERATURES MEAN ± SD” value in assay [4] (rectal temperature 4 hours after reserpine 2 mg.kg^-1 IP, controls 24.7 ± 0.88) was 30.9 ± 3.7. Besides, in assay [5] (25 mg.kg^-1 IP), the “activity against tetrabenazine-induced ptosis compared with TAHA (in words)” value was “much greater and long-lasting activity than TAHA”. Also, in assay [5] (25 mg.kg^-1 IP, 5 minutes after tetrabenazine 20 mg.kg^-1), the “% controls (% change of the mean ptosis scores in comparison with the controls), 5 MINUTES” value is listed as -69%. Besides, the “MEAN VALUE OF THE PTOSIS INTENSITY SCORE ± SD, 5 MINUTES” value in assay [5] (25 mg.kg^-1 IP, 5 minutes after tetrabenazine 20 mg.kg^-1, 0 to 4 scale, controls 1.33 ± 0.65) was found to be 0.42 ± 0.51. In assay [5] (25 mg.kg^-1 IP, 25 minutes after tetrabenazine 20 mg.kg^-1), the “% controls (% change of the mean ptosis scores in comparison with the controls), 25 MINUTES” value is given as -32%. In assay [5] (25 mg.kg^-1 IP, 35 minutes after tetrabenazine 20 mg.kg^-1), the “% controls (% change of the mean ptosis scores in comparison with the controls), 35 MINUTES” value was -35%. For the same compound, the “MEAN VALUE OF THE PTOSIS INTENSITY SCORE ± SD, 35 MINUTES” value in assay [5] (25 mg.kg^-1 IP, 35 minutes after tetrabenazine 20 mg.kg^-1, 0 to 4 scale, controls 2.83 ± 0.58) came to 1.83 ± 0.39. The “MEAN VALUE OF THE PTOSIS INTENSITY SCORE ± SD, 55 MINUTES” value in assay [5] (25 mg.kg^-1 IP, 55 minutes after tetrabenazine 20 mg.kg^-1, 0 to 4 scale, controls 3.08 ± 0.51) was determined as 2.42 ± 0.67. The “% controls (% change of the mean ptosis scores in comparison with the controls), 55 MINUTES” value in assay [5] (25 mg.kg^-1 IP, 55 minutes after tetrabenazine 20 mg.kg^-1, NS = Non significant) was -22%. Moreover, the “MEAN VALUE OF THE PTOSIS INTENSITY SCORE ± SD, 25 MINUTES” value in assay [5] (mouse, in vivo, ip) was 1.75 ± 0.45. For the same compound, the “% OF PROTECTED COUPLES (no attack)” value in assay [1] (10 mg.kg^-1 IP, controls 10%) was found to be 20%; in assay [1] (setting [7]), 60%. Besides, the “MEAN NUMBER OF ATTACKS ± SD” value in assay [1] (10 mg.kg^-1 IP, water controls 6.7 ± 4.7 (ATAH), 5.4 ± 2.8 (formula I)) came to 7.2 ± 5.9. The “anti-aggressive effect (in words)” value in assay [1] (20 mg.kg^-1 IP) was “clear anti-aggressive effect”. In addition, the “anti-aggressive activity compared with TAHA (in words)” value in assay [1] (isolated mice, IP) is given as “much greater than that of TAHA”. The “antidepressant activity (in words)” value was “much greater antidepressant activity” in assay [6] and “very potent antidepressant activity” in assay [6] (listed as 5-[(3-chloro-6-methyl-5,5-dioxo-6,11-dihydrodibenzo(c,f)(1,2)thiazepin-11-yl)-a).

Values taken from patent publication US4766114A, “Tricyclic compound called 5-((3-chloro-6-methyl-5,5-dioxo-6,11-dihydro-dibenzo (c,f) (1,2)thiazepin-11-yl)-amino) pentanoic acid” (ADIR Et Compagnie, priority 1986, dated 1988).
